21 compounds from patent US12673946B2, “Pyrimidin-4(3H)-one derivatives as TRPV4 antagonists” (RaQualia Pharma Inc., priority 2020, dated 2026) can be followed below.

Each structure is given as a SMILES string.

As usually defined, the IC50 is the point on the concentration scale where inhibition reaches its midpoint.

This assay has as its target T1, human TRPV4 (Homo sapiens, UniProt Q9HBA0).
T1 construct: host or cells: tetracycline-inducible Flp-In T-REx 293 cells
Description: Hypotonicity-induced Ca2+ influx (Fluo-4, FDSS). The format is cell-based. Put shortly:
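Flp-In T-REx 293 cells with tetracycline-induced human TRPV4, loaded with Fluo-4 for 60 min at 25 °C. Compound added 5 min before hypotonic mannitol/CaCl2 solution. Ca2+ signal recorded for 4.5 min on FDSS.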

[1] abbreviates: Flp-In T-REx 293 cells expressing human TRPV4, examples listed under heading 'Human IC50<50 nM'.
[2] abbreviates: Flp-In T-REx 293 cells stably expressing human TRPV4, compounds listed by potency bin (<10 nM Tables 96-1/96-2, <3 nM Table 97).

T1 sequence (Q9HBA0 whole entry): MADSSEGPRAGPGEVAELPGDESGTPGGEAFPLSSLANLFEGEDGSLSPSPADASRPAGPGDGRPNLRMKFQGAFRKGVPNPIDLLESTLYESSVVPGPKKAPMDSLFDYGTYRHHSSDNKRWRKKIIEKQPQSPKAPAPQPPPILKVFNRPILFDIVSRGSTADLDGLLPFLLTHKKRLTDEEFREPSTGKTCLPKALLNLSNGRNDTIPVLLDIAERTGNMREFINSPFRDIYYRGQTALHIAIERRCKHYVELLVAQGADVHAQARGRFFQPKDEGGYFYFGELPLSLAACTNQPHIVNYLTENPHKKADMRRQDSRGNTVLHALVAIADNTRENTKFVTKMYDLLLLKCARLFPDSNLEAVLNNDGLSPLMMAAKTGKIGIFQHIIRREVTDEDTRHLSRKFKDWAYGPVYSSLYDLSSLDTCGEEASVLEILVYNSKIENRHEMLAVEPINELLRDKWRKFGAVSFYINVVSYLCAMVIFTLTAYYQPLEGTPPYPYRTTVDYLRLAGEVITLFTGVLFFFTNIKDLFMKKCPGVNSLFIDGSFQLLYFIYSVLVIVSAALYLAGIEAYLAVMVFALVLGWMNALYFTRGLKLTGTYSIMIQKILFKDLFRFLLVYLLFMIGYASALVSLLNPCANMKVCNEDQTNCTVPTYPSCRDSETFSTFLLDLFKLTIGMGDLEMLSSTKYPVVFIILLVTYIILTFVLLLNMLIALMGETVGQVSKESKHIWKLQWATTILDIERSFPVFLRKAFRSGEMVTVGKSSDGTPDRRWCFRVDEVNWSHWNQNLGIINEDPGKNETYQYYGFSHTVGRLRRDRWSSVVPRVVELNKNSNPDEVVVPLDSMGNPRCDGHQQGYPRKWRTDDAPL

As for `O=C(C(O)c1cc(Cl)cc(Cl)c1)N1CCCc2nc(C3(c4ccccc4)CC3)[nH]c(=O)c2C1` (centres unmarked) [17-61], the IC50 under setting [1] was less than 50 nM.
On to `O=C([C@H](O)c1cccc(C(F)(F)F)c1)N1CCCc2nc(C3(c4cccc(Oc5ccccc5)c4)CC3)[nH]c(=O)c2C1` [17-72], for which the IC50 was less than 50 nM under setting [1] and less than 10 nM under setting [2].
With `O=C([C@H](O)c1cccc(Cl)c1)N1CCCc2nc(C3(c4cccc(Oc5ccccc5)c4)CC3)[nH]c(=O)c2C1` [17-73], the IC50 is, setting by setting: under setting [1], less than 50 nM; under setting [2], less than 3 nM.
`O=C(C(O)c1cccc(-c2cccc(C(F)(F)F)c2)c1)N1CCCc2c(nc(C3(c4ccccc4)CC3)[nH]c2=O)C1` (centres unmarked) [17-74]: the half-maximal inhibitory concentration (IC50) by setting is: under setting [1], less than 50 nM; under setting [2], less than 10 nM.
On the same counts, the results for `O=C(C(O)c1cccc(Oc2cccc(C(F)(F)F)c2)c1)N1CCCc2nc(C3(c4ccccc4)CC3)[nH]c(=O)c2C1` (centres unmarked) [17-75] are less than 50 nM and less than 3 nM.
As to `O=C(C(O)c1cccc(OCc2ccccc2)c1)N1CCCc2nc(C3(c4ccccc4)CC3)[nH]c(=O)c2C1` (centres unmarked) [17-76], the IC50 runs as follows: under setting [1], less than 50 nM; under setting [2], less than 10 nM.
On the same counts, the results for `O=C([C@H](O)c1cccc(Br)c1)N1CCCc2nc(C3(c4ccccc4)CC3)[nH]c(=O)c2C1` [17-77] are less than 50 nM and less than 10 nM.
`O=C(Cc1ccccc1-c1ccccc1)N1CCCc2nc(C3(c4cccc(Cl)c4)CC3)[nH]c(=O)c2C1` [17-80] displayed an IC50 under setting [1] of less than 50 nM.
With `O=C(C(O)c1cccc(Cl)c1F)N1CCCc2nc(C3(c4cccc(Oc5ccccc5)c4)CC3)[nH]c(=O)c2C1` (centres unmarked) [17-81], the IC50 was less than 50 nM under setting [1] and less than 10 nM under setting [2].
As to `O=C(Cc1ccccc1OCc1ccccc1)N1CCCc2nc(C3(c4cccc(Cl)c4)CC3)[nH]c(=O)c2C1` [17-82], the IC50 under setting [1] was less than 50 nM and the IC50 under setting [2] is less than 10 nM.
In the same order, the values of `O=C(Cc1cccc(-c2ccccc2)c1)N1CCCc2nc(C3(c4cccc(Cl)c4)CC3)[nH]c(=O)c2C1` [17-84] are less than 50 nM and less than 10 nM.
`O=C(C(O)c1cccc(Oc2ccccc2)c1)N1CCCc2nc(C3(c4ccccc4)CC3)[nH]c(=O)c2C1` (centres unmarked) [17-85] had an IC50 under setting [1] of less than 50 nM.
As to `O=C([C@H](O)c1cccc(Cl)c1)N1CCCc2nc(C3(c4cccc(Br)c4)CC3)[nH]c(=O)c2C1` [17-87], the IC50 reads like this: under setting [1], less than 50 nM; under setting [2], less than 10 nM.
On the same counts, the results for `CC(C(=O)N1CCCc2nc(C3(c4cccc(Cl)c4)CC3)[nH]c(=O)c2C1)c1cccc(C(F)(F)F)c1` (centres unmarked) [17-88] are less than 50 nM and less than 10 nM.
Consider `CC(C(=O)N1CCCc2nc(C3(c4cccc(F)c4)CC3)[nH]c(=O)c2C1)c1cccc(C(F)(F)F)c1` (centres unmarked) [17-89], for which the IC50 was less than 50 nM under setting [1] and less than 10 nM under setting [2].
`O=C([C@H](O)c1cccc(C(F)(F)F)c1)N1CCCc2nc(C3(c4cccc(OCc5ccccc5)c4)CC3)[nH]c(=O)c2C1` [17-90]: the IC50 by setting is: under setting [1], less than 50 nM; under setting [2], less than 10 nM.
In turn, `O=C([C@H](O)c1cccc(Cl)c1)N1CCCc2nc(C3(c4cccc(OCc5ccccc5)c4)CC3)[nH]c(=O)c2C1` [17-91] had an IC50 under setting [1] of less than 50 nM and an IC50 under setting [2] of less than 3 nM.
For `O=C([C@@H](O)c1cccc(C(F)(F)F)c1)N1CCCc2nc(C3(c4cccc(Cl)c4)CC3)[nH]c(=O)c2C1` [17-93], the IC50 under setting [1] is less than 50 nM.
Turning to `O=C([C@H](O)c1cccc(C(F)(F)F)c1)N1CCCc2nc(C3(c4cccc(-c5ccc6ncsc6c5)c4)CC3)[nH]c(=O)c2C1` [17-94], the concentration for half-maximal inhibition (IC50) under setting [1] is less than 50 nM and the IC50 under setting [2] was less than 10 nM.
In the case of `O=C([C@H](O)c1cccc(C(F)(F)F)c1)N1CCCc2nc(C3(c4cccc(-c5cnc(-c6ccccc6)o5)c4)CC3)[nH]c(=O)c2C1` [17-95], the IC50 was less than 50 nM under setting [1] and less than 10 nM under setting [2].
As to `O=C([C@H](O)c1cccc(C(F)(F)F)c1)N1CCCc2nc(C3(c4cccc(-c5ccc6sccc6c5)c4)CC3)[nH]c(=O)c2C1` [17-96], the half-maximal inhibitory concentration (IC50) by setting is: under setting [1], less than 50 nM; under setting [2], less than 10 nM.
